# In patent publication US20220106296A1, “CYANOTRIAZOLE COMPOUNDS AND USES THEREOF” (Novartis AG, priority 2018, published 2022):
# Columns and labels:
# [1] = system: stage II mouse model, CNS form of the disease; assay: Stage II mouse model of HAT; assay type: in vivo; details: 15 mg/kg QD
# Description: (§1) Based on the favorable in vitro and in vivo pharmacological properties, selected cyanotraizole compounds were chosen for testing in stage I and stage II mice models. The stage I mouse model represents the hemolymphatic (blood stream) form of human infection.
# T.b. gambinese STIB930 = assay: T.b. gambiense growth inhibition assay; assay type: cell-based; details: Trypanosoma brucei, read-out: (b) T.b.g* IC50
# Procedure: Bloodstream form of T. b. brucei Lister427 strain was obtained from the Genomics Institute of the Novartis Research Foundation. This strain was used for carrying out growth inhibition and kill kinetics assays. T. b. gambiense STIB930 and T. b. rhodesiense STIB900 were obtained from Swiss TPH, were used for carrying out the growth inhibition assays. Bloodstream form of T. b. gambiense and T. b. rhodesiense were also grown in HMI-9 media, described above, but the media was supplemented by 5% human serum and 5% heat-inactivated FBS instead of 10% FBS. To determine compound growth inhibitory potency on T. b. brucei Lister427 bloodstream form parasites, 200 nL of 10-point, 3 fold serially diluted compounds in DMSO were transferred to the wells of white, solid bottom 384-well plates (Greiner Bio-One) by either Echo 555 acoustic liquid handling system or Mosquito. Then, 1×10^4 of T. b. brucei parasites in 40 μL of HMI-9 medium were added to each well, and the plates were incubated for 48 hours at 37° C. in 5% CO2 incubators. Parasite numbers in individual plate wells were determined through quantification of intracellular ATP amount. The CellTiter-Glo luminescent cell viability reagent (Promega) was added to plate wells, and ATP-dependent luminescence signal was measured on Tecan M1000 plate Reader after 30 min incubation. Luminescence values in wells with compounds were divided by the average luminescence value of the plate DMSO controls, and used for calculation of compound IC50 values. Similar assay was also used for determining IC50 against T.b. gambinese STIB930 and T. b. rhodesiense STIB900 strains, but the initial concentration of cells used was 3×10^4 parasites/ml.
# [2] = system: Leishmania donovani axenic amastigote; assay: Growth inhibition of Leishmania donovani axenic amastigote; assay type: cell-based; details: L. donovani growth inhibition, read-out: (d) L.d* IC50
# Procedure: Leishmania donovani axenic amastigote parasites are grown at 37° C., 5% CO2 in media made of RPMI 1640, 4 mM L-glutamine, 20% heat inactivated FBS, 100 units/ml of penicillin and 100 μg/ml of streptomycin, 23 μM Folic Acid, 100 μM Adenosine, 22 mM D-glucose, 25 mM MES. The pH of media is adjusted to 5.5 at 37° C. using HCl. 20 μL of media is first dispensed into 384 well plates and 100 nL of the compounds of invention in DMSO are added to the plate wells. At the same time control compounds and DMSO are added to plates to serve as the positive and negative controls, respectively. 40 μL of parasite culture (9600 parasites) are then added to the plate wells. The plates are then placed into incubators. After 2 day incubation, 20 μL of Cell TiterGlo (Promega) is added to the plate wells. The luminescence signal of each well is measured using the Envision reader (Perkin Elmer). The percentage inhibition of 50%, EC50, is calculated for each of the compounds.
# [3] = system: T. b. brucei Lister427 bloodstream form parasites; assay: T. b. brucei growth inhibition assay (CellTiter-Glo, 48 hours); assay type: cell-based; details: Trypanosoma brucei
# How it was run: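 1×10^4 bloodstream-form parasites/well in HMI-9 medium exposed to 10-point, 3-fold compound dilutions for 48 h at 37 °C, 5% CO2. Parasite number quantified as intracellular ATP by CellTiter-Glo luminescence, normalized to DMSO controls for IC50 calculation.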
# [4] = system: stage I mouse model, hemolymphatic (blood stream) form of human infection; assay: Stage I mouse model of HAT; assay type: in vivo; details: 10 mg/kg QD
# Description: as §1
# [5] = system: intracellular T. cruzi amastigotes; assay: T. cruzi amastigote growth inhibition assay (NIH 3T3 host cells, β-galactosidase readout); assay type: cell-based; details: Trypanosoma cruzi, NIH3T3, read-out: (c) T.c.* IC50
compound,measurement,setting,value
"N#Cc1ncn(CC(=O)N2Cc3ccc(-c4cccnc4C(F)(F)F)cc3C2)n1 [Example 85, 1-(2-oxo-2-(5-(2-(trifluoromethyl)pyridin-3-yl)isoindolin-2-yl)ethyl)-1H-1,2,4-triazole-3-carbonitrile]",cure in stage II mouse model,[1],complete cure without relapse
same,IC50,T.b. gambinese STIB930,< 100 nM
same,IC50,[2],≥ 1000 nM
same,IC50,[3],< 100 nM
same,cure in stage I mouse model,[4],complete cure without relapse
same,IC50,[5],< 100 nM
